Results from patent publication US20230078764A1 (Yumanity Therapeutics, Inc., priority 2019, published 2023).
Like-named read-outs stand apart in the source and are kept apart here.

Legend:
human SCD1 = target: T1, human SCD1 (Homo sapiens, UniProt O00767); assay: Growth inhibition of yeast strain expressing human SCD1 as sole desaturase (OLE1 deleted), OD600 readout; type: cell-based
T1 construct: expressed in transfected cells; host or cells: yeast strain with OLE1 deleted, plasmid-borne human SCD1 (selected in SD-Ura)
T1 sequence (O00767 1-359): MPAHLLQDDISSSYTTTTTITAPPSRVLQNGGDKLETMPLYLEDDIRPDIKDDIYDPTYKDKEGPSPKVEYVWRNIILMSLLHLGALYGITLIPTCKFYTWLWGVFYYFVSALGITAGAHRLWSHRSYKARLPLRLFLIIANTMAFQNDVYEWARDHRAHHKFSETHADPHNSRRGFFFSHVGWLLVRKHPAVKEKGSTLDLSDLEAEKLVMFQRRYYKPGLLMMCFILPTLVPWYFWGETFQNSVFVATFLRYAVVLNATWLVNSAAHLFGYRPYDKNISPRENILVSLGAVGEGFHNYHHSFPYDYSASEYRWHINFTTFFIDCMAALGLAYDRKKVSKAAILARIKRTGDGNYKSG

human SCD5 = target: T2, human SCD5 (Homo sapiens, UniProt Q86SK9); assay: Growth inhibition of yeast strain expressing human SCD5 as sole desaturase (OLE1 deleted), OD600 readout; type: cell-based
T2 construct: expressed in transfected cells; host or cells: yeast strain with OLE1 deleted, plasmid-borne human SCD5 (selected in SD-Ura)
T2 sequence (Q86SK9 1-330): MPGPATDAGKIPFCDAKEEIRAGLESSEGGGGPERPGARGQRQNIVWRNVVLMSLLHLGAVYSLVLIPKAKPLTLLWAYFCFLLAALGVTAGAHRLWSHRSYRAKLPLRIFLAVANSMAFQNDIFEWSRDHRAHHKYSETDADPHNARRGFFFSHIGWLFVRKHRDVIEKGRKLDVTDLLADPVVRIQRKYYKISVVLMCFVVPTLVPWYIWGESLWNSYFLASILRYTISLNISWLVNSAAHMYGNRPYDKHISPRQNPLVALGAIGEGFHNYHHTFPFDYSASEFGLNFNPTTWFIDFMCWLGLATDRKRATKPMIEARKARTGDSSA

[1] = yeast strain expressing human SCD1 as sole desaturase, growth (OD600) after 40 h at 30° C., read-out: SCD1 IC50
[2] = yeast strain expressing human SCD5 as sole desaturase, growth (OD600) after 40 h at 30° C., read-out: SCD5 IC50

Row | SMILES | IC50 (human SCD1; [1]) [nM] | IC50 (human SCD5; [2]) [nM] | IC50 (human SCD1; SCD1 IC50) [nM] | IC50 (human SCD5; SCD5 IC50) [nM]
1 | Cn1cc(C(=O)Nc2ccc(OCc3cc(F)cc(C#N)c3)cn2)ccc1=O [Compound 427] | > 45000 | > 45000 | – | –
2 | Cn1cc(C(=O)Nc2ccc(Cc3cc(F)cc(C#N)c3)cn2)ccc1=O [Example 25, N-(5-(3-cyano-5-fluorobenzyl)pyridin-2-yl)-1-methyl-6-oxo-1,6-dihydropyridine-3-carboxamide] | – | – | 4030 | 530
3 | CN1N=C(C(=O)Nc2ccc(Cc3ccc(C#N)c(Cl)c3)cn2)CCC1=O [Example 33, N-(5-(3-chloro-4-cyanobenzyl)pyridin-2-yl)-1-methyl-6-oxo-1,4,5,6-tetrahydropyridazine-3-carboxamide] | > 45000 | 18000 | – | –
4 | Cn1cc(C(=O)Nc2ccc(Cc3ccc(Cl)cc3)cn2)ccc1=O [Compound 64, N-(5-(4-chlorobenzyl)pyridin-2-yl)-1-methyl-6-oxo-1,6-dihydropyridine-3-carboxamide] | – | – | 560 | 60
5 | Cc1ccc(Cc2ccc(NC(=O)C3=NN(C)C(=O)CC3)nc2)cn1 [Compound 435] | > 45000 | > 45000 | – | –
6 | CN1N=C(C(=O)Nc2ccc(Cc3cccc(F)c3)nc2)CCC1=O [Compound 401] | > 45000 | > 45000 | – | –
7 | COc1cc(F)cc(Cc2ccc(NC(=O)c3ccc(=O)n(C)c3)nc2)c1 [Compound 52, N-(5-(3-fluoro-5-methoxybenzyl)pyridin-2-yl)-1-methyl-6-oxo-1,6-dihydropyridine-3-carboxamide] | – | – | 8210 | 130
8 | Cn1ccc(C(=O)Nc2ccc(Cc3ccc(F)c(F)c3)cn2)n1 [Compound 92, N-(5-(3,4-difluorobenzyl)pyridin-2-yl)-1-methyl-1H-pyrazole-3-carboxamide] | 110 | 20 | – | –
9 | CN1N=C(C(=O)Nc2ccc(CC3CCCCC3)cn2)CCC1=O [Compound 370] | > 45000 | 6650 | – | –
10 | CN1N=C(C(=O)Nc2nc(Cc3ccc(F)cc3)cs2)CCC1=O [Compound 378] | > 45000 | > 45000 | – | –
11 | Cn1cc(C(=O)NC2CCC(Oc3cccc(Cl)c3)CC2)ccc1=O (stereo not shown) [Compound 466] | > 45000 | > 45000 | – | –
12 | O=C(Nc1ccc(Cc2ccc(F)c(Cl)c2)cn1)c1ccc(CO)nc1 [Compound 112, N-(5-(3-chloro-4-fluorobenzyl)pyridin-2-yl)-6-(hydroxymethyl)nicotinamide] | 10 | 10 | – | –
13 | Cc1nccc(C(=O)Nc2ccc(Cc3cc(F)cc(C#N)c3)cn2)n1 [Compound 134, N-(5-(3-cyano-5-fluorobenzyl)pyridin-2-yl)-2-methylpyrimidine-4-carboxamide] | 90 | 10 | – | –
14 | Cn1nc(C(=O)Nc2ccc(CCc3cccc(Cl)c3)cn2)ccc1=O [Compound 297] | > 45000 | 1200 | – | –
15 | CC(c1cccc(F)c1)c1cnc(NC(=O)C2=NN(C)C(=O)CC2)s1 (stereo not shown) [Compound 214, N-(5-(1-(3-fluorophenyl)ethyl)thiazol-2-yl)-1-methyl-6-oxo-1,4,5,6-tetrahydropyridazine-3-carboxamide] | 14500 | 1750 | – | –
16 | Cn1nc(C(=O)Nc2ccc(Cc3ccc(F)c(Cl)c3)cn2)ccc1=O [Example 46, N-(5-(3-chloro-4-fluorobenzyl)pyridin-2-yl)-1-methyl-6-oxo-1,6-dihydropyridazine-3-carboxamide] | 60 | 10 | – | –
17 | CN1N=C(C(=O)Nc2ccc(C=C3CCCCC3)cn2)CCC1=O [Compound 477] | > 45000 | 18000 | – | –
18 | CCn1cc(C(=O)Nc2ccc(COc3cccc(Cl)c3)cn2)ccc1=O [Compound 264] | > 45000 | 8840 | – | –
19 | Cn1cc(C(=O)Nc2ccc(Cc3cc(C#N)ccc3F)cn2)ccc1=O [Compound 648] | > 45000 | 990 | – | –
20 | CN1N=C(C(=O)Nc2ccc(Cc3ccc(C#N)c(F)c3)cn2)CCC1=O [Compound 470] | > 45000 | > 45000 | – | –

Further lines, with some results ahead:

Row | IC50 (human SCD1; [1]) [nM] | IC50 (human SCD5; [2]) [nM] | SMILES | IC50 (human SCD1; SCD1 IC50) [nM] | IC50 (human SCD5; SCD5 IC50) [nM]
21 | 360 | 35 | N#Cc1cc(F)cc(Cc2ccc(NC(=O)c3cnc(C#N)cn3)nc2)c1 [Compound 655] | – | –
22 | > 45000 | > 45000 | CN1N=C(C(=O)NCc2ccc(Cc3cccc(F)c3)cn2)CCC1=O [Compound 381] | – | –
23 | 10 | 10 | O=C(Nc1ccc(Cc2cc(F)cc(Cl)c2)cn1)c1ccc(CO)nc1 [Compound 111, N-(5-(3-chloro-5-fluorobenzyl)pyridin-2-yl)-6-(hydroxymethyl)nicotinamide] | – | –
24 | 35 | 25 | O=C(Nc1ccc(Cc2ccc(F)c(F)c2)cn1)c1ccnnc1 [Compound 621] | – | –
25 | 140 | 10 | CCn1ccc(C(=O)Nc2ccc(Cc3cc(F)cc(Cl)c3)cn2)n1 [Compound 99, N-(5-(3-chloro-5-fluorobenzyl)pyridin-2-yl)-1-ethyl-1H-pyrazole-3-carboxamide] | – | –
26 | > 45000 | 10000 | CN1N=C(C(=O)Nc2ncc(Cc3cccc(Cl)c3)cc2F)CCC1=O [Compound 124, N-(5-(3-chlorobenzyl)-3-fluoropyridin-2-yl)-1-methyl-6-oxo-1,4,5,6-tetrahydropyridazine-3-carboxamide] | – | –
27 | > 45000 | > 45000 | Cn1cc(C(=O)N2CCC(Oc3cccc(Cl)c3)CC2)ccc1=O [Compound 464] | – | –
28 | > 45000 | 35500 | Cn1cc(NCc2ccc(Cc3cccc(F)c3)cn2)ccc1=O [Compound 352] | – | –
29 | > 45000 | > 45000 | CN1N=C(C(=O)Nc2ncc(Cc3ccccc3C#N)s2)CCC1=O [Compound 380] | – | –
30 | > 45000 | 370 | CNC(=O)c1ccnc(C(=O)Nc2ccc(Cc3cccc(F)c3)cn2)c1 [Compound 578] | – | –
31 | 10 | 20 | CN1N=C(C(=O)Nc2ncc(Cc3cc(F)cc(Cl)c3)s2)CCC1=O [Compound 216, N-(5-(3-chloro-5-fluorobenzyl)thiazol-2-yl)-1-methyl-6-oxo-1,4,5,6-tetrahydropyridazine-3-carboxamide] | – | –
32 | 3400 | 600 | COc1cc(Cc2ccc(NC(=O)c3ccc(=O)n(C)c3)nc2)ccn1 [Compound 613] | – | –
33 | 6200 | 530 | Cn1cc(C(=O)Nc2ccc(Oc3cc(F)cc(F)c3)cn2)ccc1=O [Compound 588] | – | –
34 | 2070 | 1960 | O=C(Nc1ncc(Cc2cccc(Cl)c2)s1)c1ccc(=O)n(C2COC2)n1 [Compound 225, N-(5-(3-chlorobenzyl)thiazol-2-yl)-1-(oxetan-3-yl)-6-oxo-1,6-dihydropyridazine-3-carboxamide] | – | –
35 | 10 | 10 | Cc1nccc(C(=O)Nc2ccc(Cc3ccc(F)c(Cl)c3)cn2)n1 [Compound 244] | – | –
36 | 3500 | 170 | Cn1nc(C(=O)Nc2ccc(Cc3cc(F)ccc3F)cn2)ccc1=O [Compound 539] | – | –
37 | 7210 | 3200 | CN1N=C(C(=O)Nc2ncc(N(C)c3cccc(F)c3)s2)CCC1=O [Compound 237, N-(5-((3-fluorophenyl)(methyl)amino)thiazol-2-yl)-1-methyl-6-oxo-1,4,5,6-tetrahydropyridazine-3-carboxamide] | – | –
38 | 3500 | 230 | CN1CC=C(C(=O)Nc2ccc(Cc3cccc(F)c3)cn2)NC1=O [Compound 480] | – | –
39 | 30000 | 470 | Cn1ccc(C(=O)Nc2ccc(Cc3cc(F)cc(F)c3)cn2)nc1=O [Compound 590] | – | –
40 | 180 | 10 | N#Cc1cnc(C(=O)Nc2ccc(Cc3cc(F)cc(Cl)c3)cn2)cn1 [Compound 661] | – | –
41 | 1420 | 50 | CN1N=C(C(=O)Nc2ccc(COc3cccc(Cl)c3)cn2)CCC1=O [Compound 261] | – | –
42 | 1400 | 480 | COc1ncc(C(=O)Nc2ccc(Cc3cccc(Cl)c3)cn2)cn1 [Compound 649] | – | –
43 | 350 | 55 | O=C(Nc1ccc(Cc2cc(F)cc(Cl)c2)cn1)c1cnc(Cl)cn1 [Compound 659] | – | –
44 | 3200 | 8800 | O=C(O)c1cnc(C(=O)Nc2ccc(Cc3ccc(F)c(F)c3)cn2)cn1 [Compound 554] | – | –
45 | 35000 | 420 | Cc1ncc(C(=O)Nc2ccc(Cc3cc(F)cc(C#N)c3)cn2)cn1 [Compound 595] | – | –
46 | 1710 | 100 | Cc1ccc(C(=O)Nc2ccc(Cc3cccc(F)c3)cn2)nn1 [Compound 145, N-(5-(3-fluorobenzyl)pyridin-2-yl)-6-methylpyridazine-3-carboxamide] | – | –
47 | 10 | 10 | Cn1nc(C(=O)Nc2ncc(Cc3cccc(Cl)c3)s2)ccc1=O [Compound 236, N-(5-(3-chlorobenzyl)thiazol-2-yl)-1-methyl-6-oxo-1,6-dihydropyridazine-3-carboxamide] | – | –
